Reference: patent US20190231757A1, “COMBINATION OF SPLEEN TYROSINE KINASE INHIBITORS AND OTHER THERAPEUTIC AGENTS” (Takeda Pharmaceutical Company Limited, priority 2016, published 2019)
Structures can show the parent of a compound that is named as a salt.

How the values were obtained:
[1] = system: OCI-Ly10 human lymphoma xenografts; assay: Antitumor activity in SCID mice bearing OCI-Ly10 human lymphoma xenografts, bendamustine and rituximab (Example 6); type: in vivo, mouse; conditions: Day 21, citrate
TMD8 DLBCL xenografts = assay: Antitumor activity in CB17 SCID mice bearing TMD8 DLBCL xenografts, gemcitabine combination (Example 8); type: in vivo, mouse; conditions: Day 14, alone or combined
Description: Tumor growth inhibition was calculated on Day 14 of the study. The last measurement was taken on Day 40 of the study.
(§1) Experimental design: Female CB17 SCID mice (Taconic Biosciences; weight at treatment start was 19 g) were inoculated subcutaneously in the flank (cell suspension) with 5.0×10^6 TMD8 cells. Tumor growth was monitored with vernier calipers. Tumor volume was calculated using the formula V=W^2×L/2, where V=volume, W=width and L=length of the tumor. When the mean tumor volume reached approximately 215 mm^3, the animals were randomized into treatment groups (n=8/group). […] Tumor growth and body weight were measured twice per week. Tumor growth inhibition and body weight change were calculated on Day 14 of treatment.
(§2) Statistical analysis: The differences in the tumor growth trends over time between pairs of treatment groups were assessed using linear mixed effects regression models. These models account for the fact that each animal was measured at multiple time points. A separate model was fit for each comparison, and the areas under the curve (AUC) for each treatment group were calculated using the predicted values from the model. The percent decrease in AUC (dAUC) relative to the reference group was then calculated. […] Further details regarding pairwise comparisons are provided in the Example 2.
(§3) Drug combinations were assessed for synergy using observed AUC values. The change in AUC relative to the control was calculated for both single agent treatment groups as well as the combination group. The interaction between the two compounds was then assessed by comparing the change in AUC observed in the combination group to the sum of the changes observed in both single agents. The results can be divided into four categories: synergistic, additive, sub-additive, and antagonistic. Further details regarding combination analysis are provided in the Example 2.
(§4) Once a final analysis was selected, the tumor measurements observed on a date pre-specified by the researcher (typically the last day of treatment) were analyzed to assess tumor growth inhibition. For this analysis, a T/C ratio was calculated for each animal by dividing the tumor measurement for the given animal by the mean tumor measurement across all control animals. The T/C ratios across a treatment group were compared to the T/C ratios of the control group using a two-tailed Welch's t-test.

OCI-LY 10 xenografts = assay: Antitumor activity in CB17 SCID mice bearing OCI-LY10 xenografts, ABT-199 combination (Example 11); type: in vivo, mouse; conditions: Day 21, alone or combined
Description: Tumor growth inhibition was calculated on Day 21 of the study. The last measurement was taken on Day 46 of the study.
as §1, with “(Charles River Laboratories, about 21 g” for “(Taconic Biosciences; weight”, “start)” for “start was 19 g)”, “4.0×10^6 OCI-Ly10” for “5.0×10^6 TMD8”, “175” for “215”, “(n=5/group).” for “(n=8/group).”, “21” for “14”
as §2
as §3, with “analyses” for “analysis”
as §4

[2] = Body weight and tolerability, OCI-LY10 gemcitabine study (Example 7); type: in vivo, mouse; conditions: alone or combined
Description: as §1, with “20” for “19”, “4.0×10^6 OCI-Ly10” for “5.0×10^6 TMD8”, “cells.” for “cells. Tumor growth was monitored with vernier calipers.”, “199” for “215”, “into 6” for “into”, “21” for “14”

[3] = Body weight and tolerability, TMD8 ABT-199/gemcitabine study (Example 9); type: in vivo, mouse; conditions: alone or combined with Compound A
Description: as §1, with “start was about 19 g)” for “start was 19 g)”, “reached approximately 245 mm^3, the” for “reached approximately 215 mm^3, the”, “randomized into 6 treatment groups” for “randomized into treatment groups”

[4] = Body weight and tolerability, OCI-LY10 ABT-199 study (Example 11); type: in vivo, mouse; conditions: alone or combined
Description: as §1, with “(Charles River Laboratories, about 21 g” for “(Taconic Biosciences; weight”, “start)” for “start was 19 g)”, “4.0×10^6 OCI-Ly10” for “5.0×10^6 TMD8”, “175” for “215”, “(n=5/group).” for “(n=8/group).”, “21” for “14”

[5] = Body weight and tolerability, WSU-Luc ibrutinib study (Example 12); type: in vivo, mouse; conditions: alone or combined
Description: Tumor growth was monitored with vernier calipers. Tumor volume was calculated using the formula V=W^2×L/2, where V=volume, W=width and L=length of the tumor. When the mean tumor volume reached approximately 190 mm^3, the animals were randomized into treatment groups (n=8/group). […] Tumor growth and body weight were measured twice per week. Tumor growth inhibition and body weight change were calculated on Day 20 of treatment.

[6] = Clinical activity in a recent study (response-evaluable subjects); type: in vivo; conditions: 3 DLBCL PR, 1 FL CR, 2 FL SD
[7] = system: CT26 mouse syngeneic colon cancer model; assay: CT26 mouse syngeneic colon cancer model, prior non-clinical study; type: in vivo; conditions: single agents
[8] = mouse, in vivo, po, 60 mg/kg
[9] = Compound A 60 mg/kg, ABT-199 12.5 mg/kg

Structure (SMILES): Cn1cc(-c2nc(N[C@@H]3CCCC[C@@H]3N)c(F)c3c2C(=O)NC3)cn1 [Compound A, 6-((1R,2S)-2-aminocyclohexylamino)-7-fluoro-4-(1-methyl-1H-pyrazol-4-yl)-1H-pyrrolo[3,4-c]pyridine-3 (2H)-one citrate]
- TGI ([1]; Compound A 30 mg/kg PO QD x21, bendamustine 1 mg/kg IV BIW, rituximab 1 mg/kg IV QW x3, alone or combined): 24.2%
- TGI ([1]; Compound A 60 mg/kg PO QD x21, 60 mg/kg): 51.1%
- Mean Tumor Volume (mm^3) ± SEM (TMD8 DLBCL xenografts; Compound A 60 mg/kg PO QD, gemcitabine 5 mg/kg IP Q3D x4): 957.2 ± 82.2 mm^3
- T/C (TMD8 DLBCL xenografts; Compound A 60 mg/kg, gemcitabine 5 mg/kg): 1.07
- TGI (%) (OCI-LY 10 xenografts; Compound A 60 mg/kg PO QD, ABT-199 12.5 mg/kg PO QD): 61.0%
- Mean Tumor Volume (mm^3) ± SEM (OCI-LY 10 xenografts; [9]): 408 ± 104.9 mm^3
- T/C (OCI-LY 10 xenografts; [9]): 0.39
- % BW Change (Day Maximum) ([2]; Compound A 60 mg/kg PO QD 21 d, gemcitabine 2.5 mg/kg IP Q3D (4 doses)): 6.8 (21) %
- Number of animals removed ([2]; Compound A 60 mg/kg, gemcitabine 2.5 mg/kg): 0
- % BW Change (Day Maximum) ([3]; Compound A 60 mg/kg PO QD 14 d, ABT-199 25 mg/kg PO QD 14 d, gemcitabine 5 mg/kg IP Q3D x4): 7.9 (14) %
- Number of animals removed ([3]; Compound A 60 mg/kg, ABT-199 25 mg/kg, gemcitabine 5 mg/kg): 0
- % BW Change (Day Maximum) ([4]; Compound A 60 mg/kg PO QD 21 d, ABT-199 12.5 mg/kg PO QD 21 d): −0.0 (3) %
- Number of animals removed [4, 9]: 0
- % BW Change (Day Maximum) ([5]; Compound A 60 mg/kg PO QD 21 d, ibrutinib 20 mg/kg PO QD 21 d): 11.6 (20) %
- Number of animals removed ([5]; Compound A 60 mg/kg, ibrutinib 20 mg/kg): 0
- response-evaluable subjects who responded to treatment [6]: 6 of the 20
- animals survived to 30 days after the last dose [7]: 20%
- increase in mean body weight on Day 14 compared to Day 0 [8]: 1.6 g
